We go through four compounds from US6344477B1, “Prostaglandin e agonists for treatment of dry eye” (Alcon Manufacturing, Ltd., priority 1998, dated 2002).

Broadly, the EC50 is the concentration giving half of the maximal effect.

Molecules are shown by their SMILES.

In experiment [1] the target is T1, EP2 Receptors in Immortalized Human Non-pigmented Ciliary Epithelial Cells (Homo sapiens, UniProt P43116).
T1 construct: Immortalized human non-pigmented ciliary epithelial cells (containing EP2 receptors); endogenous in cells; host or cells: immortalized human non-pigmented ciliary epithelial cells
T1 sequence (P43116 whole entry): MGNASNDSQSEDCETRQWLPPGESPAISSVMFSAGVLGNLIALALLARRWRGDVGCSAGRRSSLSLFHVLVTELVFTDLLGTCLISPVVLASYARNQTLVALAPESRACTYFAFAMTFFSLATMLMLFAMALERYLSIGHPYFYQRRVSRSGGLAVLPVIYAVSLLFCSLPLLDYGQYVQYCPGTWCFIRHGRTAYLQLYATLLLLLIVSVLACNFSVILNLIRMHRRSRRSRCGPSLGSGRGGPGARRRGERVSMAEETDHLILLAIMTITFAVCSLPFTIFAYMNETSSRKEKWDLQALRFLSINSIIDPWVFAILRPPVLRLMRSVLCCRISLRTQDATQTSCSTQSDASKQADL
The experiment is described as follows: cAMP production (radioimmunoassay) via EP2 receptors in immortalized human non-pigmented ciliary epithelial cells. The note with it: for EC50: cAMP production, 15-60 min at 23° C., read-out: Potency (EC50, nM) at EP2 Receptors in Immortalized Human Non-pigmented Ciliary Epithelial Cells. The experiment is classed as cell-based. The protocol:
(§1) Immortalized human non-pigmented ciliary epithelial cells (containing EP2 receptors) and Chinese hamster ovary cells (containing EP4 receptors) were stimulated with various prostaglandins for 15-60 min at 23° C. The cAMP produced by receptor activation was determined by a specific radioimmunoassay as previously described (Sharif et. al., Pharmacological analysis of mast cell mediator and neurotransmitter receptors coupled to adenylate cyclase and phospholipase C on immunocytochemically-defined human conjunctival epithelial cells, J. Ocular Pharmacology & Therapeutics, 13:321-336 (1997); Crider et. al., Prostaglandin-stimulated adenylyl cyclase activity via a pharmacologically-defined EP2 receptor in human non-pigmented epithelial cells, J. Ocular Pharmacology & Therapeutics, 14:293-304 (1998); Crider et. al., Use of a semi-automated, robotic radioimmunoassay to measure cAMP generated by activation of DP-, EP2- and IP-prostaglandin receptors in human ocular and other cell-types, Prostaglandins, Leukotrienes & Fatty Acids, 59:77-82 (1998); Milne et. al., Human monocytes and cultured Chinese hamster ovary cells express EP4 receptors positively coupled to adenylate cyclase, Br. J. Pharmacology, 113 (supplement), 8p, (1994)).
(Cyclic AMP is a second messenger, typically raised through Gs and lowered through Gi signalling.)

Experiment [2] has as its target T2, EP4 Receptors in Chinese Hamster Ovary Cells (Cricetulus griseus, UniProt A0A061ILF4).
T2 construct: Chinese hamster ovary cells (containing EP4 receptors); endogenous in cells; host or cells: Chinese hamster ovary cells
Kind of experiment: cAMP production (radioimmunoassay) via EP4 receptors in Chinese hamster ovary cells. The note with it: 15-60 min at 23° C.; for EC50: read-out: Potency (EC50, nM) at EP4 Receptors in Chinese Hamster Ovary Cells. In kind it is cell-based. How it is done:
as §1

T2 sequence (A0A061ILF4 1-488): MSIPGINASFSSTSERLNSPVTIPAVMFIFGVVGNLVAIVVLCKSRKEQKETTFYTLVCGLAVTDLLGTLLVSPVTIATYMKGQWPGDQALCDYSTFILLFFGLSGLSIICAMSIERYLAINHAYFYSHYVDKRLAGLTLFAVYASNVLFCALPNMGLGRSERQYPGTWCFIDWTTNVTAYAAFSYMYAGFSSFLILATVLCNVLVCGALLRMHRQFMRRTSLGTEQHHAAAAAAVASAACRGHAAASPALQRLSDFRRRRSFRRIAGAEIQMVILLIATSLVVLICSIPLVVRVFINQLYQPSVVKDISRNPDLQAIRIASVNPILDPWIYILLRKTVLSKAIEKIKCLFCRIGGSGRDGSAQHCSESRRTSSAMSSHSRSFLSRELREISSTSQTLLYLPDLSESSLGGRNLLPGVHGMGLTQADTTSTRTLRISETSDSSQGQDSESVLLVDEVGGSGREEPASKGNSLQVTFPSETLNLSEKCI

With `CCCCC(C)(C)[C@H](O)/C=C/[C@H]1CCC(=O)[C@@H]1C/C=C\CCCC(=O)O` [11-deoxy-16,16-dimethyl-PGE2, 11-deoxy-16,16,-dimethyl-PGE2], the results for the concentration for a half-maximal effect (EC50) in experiment [1] and in experiment [2] were 739 nM and 176 nM, respectively.
With `CCCCC[C@H](O)/C=C/[C@H]1CCC(=O)[C@@H]1CCCCCCC(=O)O` [11-deoxy-PGE1], the EC50 in experiment [1] is 500 nM; in experiment [2], 38 nM. The “Efficacy at EP4 Receptors in Chinese Hamster Ovary Cells” value in experiment [2] came out at 86%.
Regarding `CCCCC(C)(C)[C@H](O)/C=C/[C@H]1[C@H](O)CC(=O)[C@@H]1C/C=C\CCCC(=O)O` [16,16-dimethyl-PGE2], the EC50 in experiment [1] came out at 686 nM; in experiment [2] it was 31 nM.
On to `CCCC1([C@H](O)C/C=C/[C@H]2[C@H](O)CC(=O)[C@@H]2CCCCCCC(=O)OC)CCC1` [Butaprost, reference compound], for which the half-maximal effective concentration (EC50) in experiment [1] is 212 nM; in experiment [2], above 10000 nM. In experiment [1] (comparison of EC50 at EP2 and EP4 receptors), the “Receptor selectivity EP2 versus EP4” value is given as “more EP2-selective”.
